The record followed here is patent US9051270B2, “Pyridone amides as modulators of sodium channels” (Vertex Pharmaceuticals Incorporated, priority 2013, dated 2015).

A word on the IC50: it is the concentration at which inhibition is half-maximal. Read a low IC50 as greater potency in that assay.

The target of this test is human Nav1.8 (Homo sapiens (Human), UniProt Q9Y5Y9). Nature of the test: E-VIPR optical membrane potential assay with electrical stimulation. To be noted: HEK cells expressing human Nav1.8. Format: cell-based. An excerpt: Sodium channels are voltage-dependent proteins that can be activated by inducing membrane voltage changes by applying electric fields. […] The instrument comprises a microtiter plate handler, an optical system for exciting the coumarin dye while simultaneously recording the coumarin and oxonol emissions, a waveform generator, a current- or voltage-controlled amplifier, and a device for inserting electrodes in well. Under integrated computer control, this instrument passes user-programmed electrical stimulus protocols to cells within the wells of the microtiter plate.
Sequence of human Nav1.8 (Q9Y5Y9 whole entry): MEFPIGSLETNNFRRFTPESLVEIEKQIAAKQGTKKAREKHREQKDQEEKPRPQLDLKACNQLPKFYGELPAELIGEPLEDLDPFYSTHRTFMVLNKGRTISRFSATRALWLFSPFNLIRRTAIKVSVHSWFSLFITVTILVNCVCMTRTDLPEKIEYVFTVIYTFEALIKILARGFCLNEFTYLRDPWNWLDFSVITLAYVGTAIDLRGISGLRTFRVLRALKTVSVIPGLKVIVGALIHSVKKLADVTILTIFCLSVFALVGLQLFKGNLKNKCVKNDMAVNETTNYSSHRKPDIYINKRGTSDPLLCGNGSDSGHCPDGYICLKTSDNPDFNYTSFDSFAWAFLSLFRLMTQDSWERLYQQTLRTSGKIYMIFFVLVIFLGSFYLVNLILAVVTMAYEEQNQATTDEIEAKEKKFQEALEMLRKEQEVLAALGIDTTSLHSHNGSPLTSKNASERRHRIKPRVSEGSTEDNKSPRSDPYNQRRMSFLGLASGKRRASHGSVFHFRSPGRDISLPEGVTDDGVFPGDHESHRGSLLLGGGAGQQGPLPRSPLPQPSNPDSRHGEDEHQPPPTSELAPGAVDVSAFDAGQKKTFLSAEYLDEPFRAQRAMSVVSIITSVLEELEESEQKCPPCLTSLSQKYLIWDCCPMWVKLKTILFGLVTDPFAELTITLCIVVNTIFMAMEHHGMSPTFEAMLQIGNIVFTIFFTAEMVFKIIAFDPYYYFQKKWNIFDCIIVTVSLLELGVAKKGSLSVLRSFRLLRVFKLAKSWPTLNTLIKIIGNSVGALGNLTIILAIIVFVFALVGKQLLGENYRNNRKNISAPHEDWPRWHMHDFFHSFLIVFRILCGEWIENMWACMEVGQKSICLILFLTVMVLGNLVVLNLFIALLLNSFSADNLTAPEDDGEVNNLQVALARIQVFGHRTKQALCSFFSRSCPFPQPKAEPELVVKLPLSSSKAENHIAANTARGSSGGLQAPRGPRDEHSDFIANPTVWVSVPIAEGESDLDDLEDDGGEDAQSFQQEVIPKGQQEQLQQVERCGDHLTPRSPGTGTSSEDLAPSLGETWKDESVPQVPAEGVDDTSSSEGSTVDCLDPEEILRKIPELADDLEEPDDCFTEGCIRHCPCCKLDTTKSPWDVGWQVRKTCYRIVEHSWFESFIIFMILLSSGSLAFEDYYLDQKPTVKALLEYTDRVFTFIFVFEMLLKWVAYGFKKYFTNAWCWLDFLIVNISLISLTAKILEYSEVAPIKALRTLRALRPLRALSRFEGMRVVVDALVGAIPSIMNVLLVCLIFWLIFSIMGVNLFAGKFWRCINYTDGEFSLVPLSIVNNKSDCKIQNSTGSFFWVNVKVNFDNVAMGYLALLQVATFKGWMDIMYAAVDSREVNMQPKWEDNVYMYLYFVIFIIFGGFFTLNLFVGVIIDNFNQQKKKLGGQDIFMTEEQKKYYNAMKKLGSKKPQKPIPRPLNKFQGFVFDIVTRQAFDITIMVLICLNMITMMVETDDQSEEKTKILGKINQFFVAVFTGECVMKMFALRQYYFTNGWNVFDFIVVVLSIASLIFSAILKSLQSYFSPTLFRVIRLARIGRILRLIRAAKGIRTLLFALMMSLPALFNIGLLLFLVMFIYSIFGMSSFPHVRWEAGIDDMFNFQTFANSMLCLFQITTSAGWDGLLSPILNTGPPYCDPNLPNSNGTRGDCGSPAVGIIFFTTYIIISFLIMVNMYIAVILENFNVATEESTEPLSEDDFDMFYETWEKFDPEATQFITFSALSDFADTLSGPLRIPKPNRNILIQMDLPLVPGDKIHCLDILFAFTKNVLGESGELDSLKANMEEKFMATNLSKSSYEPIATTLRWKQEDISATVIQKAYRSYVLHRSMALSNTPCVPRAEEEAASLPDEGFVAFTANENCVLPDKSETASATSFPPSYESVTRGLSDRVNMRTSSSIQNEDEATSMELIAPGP
24 hours before the assay on E-VIPR, HEK cells expressing human Nav1.8 were seeded in 384-well poly-lysine coated plates at 15,000-20,000 cells per well. […] Cells were grown in vented cap flasks, in 90% humidity and 5% CO2.
To make the solution added volume of 10% Pluronic F127 stock equal to volumes of CC2-DMPE+DiSBAC6(3). The order of preparation was first mixing Pluronic and CC2-DMPE, then adding DiSBAC6(3) while vortexing, then adding Bath1+β-Cyclodextrin.
1) Pre-spotted compounds (in neat DMSO) into compound plates. […] Final compound plate volume was 80 μL (80-fold intermediate dilution from 1 μL DMSO spot; 160-fold final dilution after transfer to cell plate).
2) Prepared Hexyl Dye Solution.
3) Prepared cell plates. On the day of the assay, medium was aspirated and cells were washed three times with 100 μL of Bath1 Solution, maintaining 25 μL residual volume in each well.
4) Dispensed 25 μL per well of Hexyl Dye Solution into cell plates. Incubated for 20-35 minutes at room temp or ambient conditions.
5) Dispensed 80 μL per well of Bath1 into compound plates. Acid Yellow-17 (1 mM) was added and Potassium Chloride was altered from 4.5 to 20 mM depending on the NaV subtype and assay sensitivity.
6) Washed cell plates three times with 100 μL per well of Bath1, leaving 25 μL of residual volume. Then transferred 25 uL per well from Compound Plates to Cell Plates. Incubated for 20-35 minutes at room temp/ambient condition.
7) Read Plate on E-VIPR. […] A pre-stimulus recording was performed for 0.5 seconds to obtain the un-stimulated intensities baseline. The stimulatory waveform was followed by 0.5 seconds of post-stimulation recording to examine the relaxation to the resting state.
Data was analyzed and reported as normalized ratios of emission intensities measured in the 460 nm and 580 nm channels. The response as a function of time was reported as the ratios obtained using the following formula: […]
The data was further reduced by calculating the initial (Ri) and final (Rf) ratios. These were the average ratio values during part or all of the pre-stimulation period, and during sample points during the stimulation period. The response to the stimulus R=Rf/Ri was then calculated and reported as a function of time.
Control responses were obtained by performing assays in the presence of a compound with the desired properties (positive control), such as tetracaine, and in the absence of pharmacological agents (negative control). Responses to the negative (N) and positive (P) controls were calculated as above. The compound antagonist activity A is defined as:
[formula] where R is the ratio response of the test compound
Compound `CCCOc1ccc(Oc2ccc(C(F)(F)F)cc2C(=O)Nc2cc[nH]c(=O)c2)cc1` [Compound 53, N-(2-oxo-1,2-dihydropyridin-4-yl)-2-(4-propoxyphenoxy)-5-(trifluoromethyl)benzamide] yielded an IC50 of 0.047 µM. To `O=C(Nc1ccc(=O)[nH]c1)c1ccccc1Oc1ccc(F)cc1` [Compound 3, 2-(4-fluorophenoxy)-N-(6-oxo-1,6-dihydropyridin-3-yl)benzamide] belongs 13.5 µM; to `O=C(Nc1cc[nH]c(=O)c1)c1cc(C(F)(F)F)ccc1OCCCC(F)(F)F` [Compound 133, N-(2-oxo-1,2-dihydropyridin-4-yl)-2-(4,4,4-trifluorobutoxy)-5-(trifluoromethyl)benzamide], 5.8 µM; to `Cc1ccc(Oc2cc(C(F)(F)F)ccc2C(=O)Nc2cc[nH]c(=O)c2)cc1` [Compound 12, N-(2-oxo-1,2-dihydropyridin-4-yl)-2-(p-tolyloxy)-4-(trifluoromethyl)benzamide], 0.106 µM.

In turn, `O=C(Nc1cc[nH]c(=O)c1)c1c(Oc2ccc(F)cc2)cc(C(F)(F)F)cc1C(F)(F)F` [Compound 155, 2-(4-fluorophenoxy)-N-(2-oxo-1,2-dihydropyridin-4-yl)-4,6-bis(trifluoromethyl)benzamide] showed an IC50 of 0.011 µM.

As to `CCOc1ccccc1Oc1ccc(C(F)(F)F)cc1C(=O)Nc1cc[nH]c(=O)c1` [Compound 46, 2-(2-ethoxyphenoxy)-N-(2-oxo-1,2-dihydropyridin-4-yl)-5-(trifluoromethyl)benzamide], the IC50 was 0.064 µM.

In turn, `O=C(Nc1cc[nH]c(=O)c1)c1cc(C(F)(F)F)ccc1Oc1ccccc1` [Compound 32, N-(2-oxo-1,2-dihydropyridin-4-yl)-2-phenoxy-5-(trifluoromethyl)benzamide] gave an IC50 of 0.205 µM. On to `O=C(Nc1cc[nH]c(=O)c1)c1cc(OC(F)(F)F)ccc1OC1CCCCC1` [Compound 137, 2-(cyclohexyloxy)-N-(2-oxo-1,2-dihydropyridin-4-yl)-5-(trifluoromethoxy)benzamide], for which it took 12.7 µM to reach half-maximal inhibition (IC50). Under `COc1ccc(Oc2ccc(C(F)(F)F)cc2C(=O)Nc2cc[nH]c(=O)c2)c(F)c1` [Compound 55, 2-(2-fluoro-4-methoxyphenoxy)-N-(2-oxo-1,2-dihydropyridin-4-yl)-5-(trifluoromethyl)benzamide] stands 0.07 µM; under `O=C(Nc1ccc(=O)[nH]c1)c1ccc(C(F)(F)F)cc1Oc1ccc(F)cc1` [Compound 6, 2-(4-fluorophenoxy)-N-(6-oxo-1,6-dihydropyridin-3-yl)-4-(trifluoromethyl)benzamide], 0.245 µM. Under `CCCOc1ccc(Oc2ccc(F)cc2C(=O)Nc2cc[nH]c(=O)c2)cc1` [Compound 100, 5-fluoro-N-(2-oxo-1,2-dihydropyridin-4-yl)-2-(4-propoxyphenoxy)benzamide] stands 0.155 µM. To `O=C(Nc1cc[nH]c(=O)c1)c1ccc(C(F)(F)F)cc1OCC1CC1(F)F` (stereo not shown) [Compound 126, 2-((2,2-difluorocyclopropyl)methoxy)-N-(2-oxo-1,2-dihydropyridin-4-yl)-4-(trifluoromethyl)benzamide] belongs 1.4 µM; to `O=C(Nc1cc[nH]c(=O)c1)c1c(Oc2ccc(F)cc2)cccc1C(F)(F)F` [Compound 43, 2-(4-fluorophenoxy)-N-(2-oxo-1,2-dihydropyridin-4-yl)-6-(trifluoromethyl)benzamide], 0.38 µM; to `COc1ccc(Oc2cc(C(F)(F)C(F)(F)F)ccc2C(=O)Nc2cc[nH]c(=O)c2)cc1F` [Compound 89, 2-(3-fluoro-4-methoxyphenoxy)-N-(2-oxo-1,2-dihydropyridin-4-yl)-4-(perfluoroethyl)benzamide], 0.016 µM. With `COc1ccc(Oc2cc(C(F)(F)F)ccc2C(=O)Nc2cc[nH]c(=O)c2)cc1F` [Compound 81, 2-(3-fluoro-4-methoxyphenoxy)-N-(2-oxo-1,2-dihydropyridin-4-yl)-4-(trifluoromethyl)benzamide], half-maximal inhibition (IC50) was put at 0.026 µM.

Turning to `CC(C)COc1cc(C(F)(F)F)ccc1C(=O)Nc1cc[nH]c(=O)c1` [Compound 117, 2-isobutoxy-N-(2-oxo-1,2-dihydropyridin-4-yl)-4-(trifluoromethyl)benzamide], half-maximal inhibition (IC50) required 1.15 µM. To `Cc1cc(NC(=O)c2cc(C(F)(F)F)ccc2Oc2ccc(F)cc2C)cc(=O)[nH]1` [Compound 61, 2-(4-fluoro-2-methylphenoxy)-N-(6-methyl-2-oxo-1,2-dihydropyridin-4-yl)-5-(trifluoromethyl)benzamide] belongs 0.113 µM; to `Cn1cc(NC(=O)c2ccc(C(C)(C)C)cc2Oc2ccc(C(F)(F)F)nc2)ccc1=O` [Compound 149, 4-(tert-butyl)-N-(1-methyl-6-oxo-1,6-dihydropyridin-3-yl)-2-((6-(trifluoromethyl)pyridin-3-yl)oxy)benzamide], 1.65 µM. In turn, `Cc1ccccc1Oc1ccc(OC(F)(F)F)cc1C(=O)Nc1cc[nH]c(=O)c1` [Compound 36, N-(2-oxo-1,2-dihydropyridin-4-yl)-2-(o-tolyloxy)-5-(trifluoromethoxy)benzamide] registered an IC50 of 0.101 µM.

Compound `O=C(Nc1cc[nH]c(=O)c1)c1cc(OC(F)(F)F)ccc1OCCCC(F)(F)F` [Compound 139, N-(2-oxo-1,2-dihydropyridin-4-yl)-2-(4,4,4-trifluorobutoxy)-5-(trifluoromethoxy)benzamide] registered an IC50 of 3.05 µM.

`O=C(Nc1cc[nH]c(=O)c1)c1ccc(Cl)cc1Oc1c(F)cccc1Cl` [Compound 18, 4-chloro-2-(2-chloro-6-fluorophenoxy)-N-(2-oxo-1,2-dihydropyridin-4-yl)benzamide] returned a 50% inhibitory concentration (IC50) of 12 µM.

Take `COc1cccc(F)c1Oc1ccc(C(F)(F)F)cc1C(=O)Nc1cc[nH]c(=O)c1` [Compound 48, 2-(2-fluoro-6-methoxyphenoxy)-N-(2-oxo-1,2-dihydropyridin-4-yl)-5-(trifluoromethyl)benzamide]: the IC50 was determined as 2.7 µM. Under `COc1ccc(F)cc1Oc1ccc(C(F)(F)F)cc1C(=O)Nc1cc[nH]c(=O)c1` [Compound 52, 2-(5-fluoro-2-methoxyphenoxy)-N-(2-oxo-1,2-dihydropyridin-4-yl)-5-(trifluoromethyl)benzamide] stands 0.094 µM. Under `O=C(Nc1cc[nH]c(=O)c1)c1ccc(C(F)(F)F)cc1OCC1CCOC1` (stereo not shown) [Compound 121, N-(2-oxo-1,2-dihydropyridin-4-yl)-2-((tetrahydrofuran-3-yl)methoxy)-4-(trifluoromethyl)benzamide] stands 19 µM; under `N#Cc1ccc(C(=O)Nc2cc[nH]c(=O)c2)c(Oc2ccc(F)cc2)c1` [Compound 21, 4-cyano-2-(4-fluorophenoxy)-N-(2-oxo-1,2-dihydropyridin-4-yl)benzamide], 0.843 µM; under `CC(C)c1ccc(Oc2ccc(F)cc2C(=O)Nc2cc[nH]c(=O)c2)cc1` [Compound 99, 5-fluoro-2-(4-isopropylphenoxy)-N-(2-oxo-1,2-dihydropyridin-4-yl)benzamide], 5.15 µM. In the case of `O=C(Nc1cc[nH]c(=O)c1)c1cc(OC(F)(F)F)ccc1OCCC(F)(F)F` [Compound 138, N-(2-oxo-1,2-dihydropyridin-4-yl)-5-(trifluoromethoxy)-2-(3,3,3-trifluoropropoxy)benzamide], the IC50 stood at 1.45 µM.

The compound `O=C(Nc1cc[nH]c(=O)c1)c1cc(C(F)(F)F)ccc1Oc1ccc(Cl)cc1` [Compound 58, 2-(4-chlorophenoxy)-N-(2-oxo-1,2-dihydropyridin-4-yl)-5-(trifluoromethyl)benzamide] gave an IC50 of 0.054 µM. Under `CC(C)Oc1ccccc1Oc1ccc(C(F)(F)F)cc1C(=O)Nc1cc[nH]c(=O)c1` [Compound 64, 2-(2-isopropoxyphenoxy)-N-(2-oxo-1,2-dihydropyridin-4-yl)-5-(trifluoromethyl)benzamide] stands 0.108 µM; under `Cc1ccc(Oc2cc(C(F)(F)F)ccc2C(=O)Nc2cc[nH]c(=O)c2)cn1` [Compound 146, 2-((6-methylpyridin-3-yl)oxy)-N-(2-oxo-1,2-dihydropyridin-4-yl)-4-(trifluoromethyl)benzamide], 4.6 µM; under `O=C(Nc1cc[nH]c(=O)c1)c1cc(F)ccc1Oc1ccc(OCCCC(F)(F)F)cc1` [Compound 160, 5-fluoro-N-(2-oxo-1,2-dihydropyridin-4-yl)-2-(4-(4,4,4-trifluorobutoxy)phenoxy)benzamide], 1.39 µM.
